{
  "source": "patent US20260356879A1",
  "about": "“CELASTROL DERIVATIVES” (Celloram Inc., priority 2022, published 2026)",
  "tested_on": "THP-1 cells",
  "assay": "LDH release (NLRP3 inflammasome-induced cytotoxicity) in THP-1 cells",
  "type": "cell-based, human",
  "conditions": "for inhibition of inflammasome-induced pyroptosis: human THP-1 macrophages, overall comparison with MCC950, FIG. 7A-7C",
  "description": "Pyroptosis, a pro-inflammatory form of cell death, is triggered by the activation of NLRP3 inflammasome components (GSDMD and Caspase-1), leading to the release of pro-inflammatory cytokines IL-1β and IL-18, as well as damage-associated molecular patterns (DAMPs). This process elicits a cascade of inflammatory responses, which can persist if dysregulated in affected tissues. Given the significant inhibitory potential of CLM-022 against NLRP3 inflammasome and IL-1β secretion, it was proposed that CLM-022 could effectively enhance cell viability by inhibiting pyroptosis in the context of inflammation and inflammasome activation. This example illustrates a comparative study of the abilities of CLM-022 and MCC950 to protect THP-1 cells from inflammasome-induced pyroptosis.\nAfter LPS and Nigericin treatment, THP-1 cells were treated with either CLM-022 or MCC950 over a dosage range of 0 μM to 10 μM and cell viability was determined by impermeant live/dead staining dye and flow cytometric analysis. Additionally, NLRP3 inflammasome-induced cytotoxicity was investigated by measuring the level of LDH in the conditioned media after the CLM-022 and MCC950 treatments. Further, Western blotting of samples from the THP-1 cell viability assays was carried out to determine levels of the pyroptosis-mediating molecules, GSDMD and Caspase-1.",
  "data": [
    {"smiles": "CC1=C(O)C(=O)C=C2C1=CC=C1[C@@]2(C)CC[C@@]2(C)[C@@H]3C[C@](C)(N(C)C(=O)C(=O)N(C)C)CC[C@]3(C)CC[C@]12C", "note": "[Compound 22, N′-[(2R,4aS,6aR,6aS,14aS,14bR)-10-hydroxy-2,4a,6a,6a,9,14a-hexamethyl-11-oxo-1,3,4,5,6,13,14,14b-octahydropicen-2-yl]-N,N,N′-trimethyl-oxamide]", "values": [
      {"measurement": "IC50", "setting": "Homo sapiens, THP-1, LPS and Nigericin, 0 μM to 10 μM, FIG. 7B, read-out: IC50 for LDH release (normalized)", "result": 12.4, "unit": "nM"},
      {"measurement": "inhibition of LDH release", "setting": "THP-1, LPS and Nigericin, FIG. 7B", "result": "significantly inhibited release of LDH"},
      {"measurement": "higher potency relative to MCC950 in preventing pyroptosis", "setting": "from LDH release IC50 values, FIG. 7B", "result": 10, "unit": "fold"},
      {"measurement": "inhibition of inflammasome-induced pyroptosis", "result": "greater capacity to inhibit inflammasome-induced pyroptosis in human THP-1 macrophages"},
      {"measurement": "inhibition of inflammasome-induced pyroptosis", "setting": "listed as CLM-022", "result": "greater capacity than the benchmark molecule, MCC950, to inhibit inflammasome-induced pyroptosis in human THP-1 macrophages"}
    ]}
  ]
}
